From patent US8212038B2, “Methods and compositions for controlling ectoparasites” (HatchTech Pty Ltd., priority 2003, dated 2012)
Entries after “also recorded” stand apart in the source; their conditions may differ. Square brackets hold non-standard residues; d marks the D form. Peptide text beside a SMILES is read from it. * marks the point of attachment. Sta = CC(C)C[C@H](N)[C@@H](O)CC(=O)O; Isovaleryl = CC(C)CC(=O)*

What was measured:
[1] = tested on: lice eggs; assay: Lice egg-hatching bioassay, eggs treated once 5 days post laying; assay type: in vivo, Pediculus humanus humanus
Description: To evaluate the potential effects of protease inhibitors on lice egg hatching it was necessary to develop a reliable in vitro bioassay. Male and female clothing lice were fed on a rabbit as previously described. […] During this period the female lice laid their eggs and attached them to the woven cloth. All lice would then be removed and the eggs permitted to incubate for the following 5 days. […] The eggs would then progress through to their final stages of development and hatch. In untreated control eggs a reliable average percentage hatch of between 85-95 percent was obtained using the in vitro egg hatch assay. […] Lice eggs were laid onto cloth as described above. […] Protease inhibitor solutions were typically prepared as stock solutions and added fresh at the appropriate concentration. Specifically stock solutions were prepared as follows: 1,10-phenanthroline (200 mM in methanol) and Bestatin (5 mg/ml in methanol). In addition, the equivalent levels of the solvent were added to the non-inhibitor containing controls eggs to test for any buffer alone effects. Percentage hatch inhibition was calculated as the percentage reduction in egg hatch compared to the untreated control.

[2] = tested on: lice eggs; assay: Time course in vitro lice egg hatching assay; assay type: in vivo, Pediculus humanus humanus
[3] = tested on: proteases in the egg shell washings (ESW) of lice eggs; assay: Gelatine substrate SDS-PAGE of egg shell washings treated with protease inhibitors; assay type: biochemical, Pediculus humanus humanus; details: 37° C., 3 hrs
Description: Within 12 hours of hatching 50 body lice eggs (Pediculus humanus humanus) were removed from the hair and placed in a 1 ml eppendorf tube. 20 μL of distilled water was added to the unhatched eggs and the preparation incubated for 30 minutes at 32° C. The 20 μL was recovered, freeze dried and stored at −70° C. A number of other samples were also collected as described. Hair samples from which unhatched lice eggs had been removed were also collected and incubated as described above. In addition, a sample of unhatched eggs and a sample of hair from which lice eggs had been removed were collected 7 days post laying (within 24 hrs of egg hatching). Both samples were washed in 10 mls of a 1% solution of sodium hypochlorite for 1 minute followed by a 5×1 minute washes in 25 mls in distilled water to remove the hypochlorite. These samples were then incubated in […] of distilled water as described above. In addition, a group of 25 lice eggs that were within 24 hours of hatching, were pretreated with 1% sodium hypochlorite, washed as described above and left to hatch. Within 1-2 hours after hatching the empty egg shells were incubated in 20 μL of distilled water as described above, the washings collected from the hatched egg shells and stored at −70° C. All of the extract samples were then freeze-dried overnight. The freeze-dried samples were then resuspended in […] of non-reducing SDS sample buffer, centrifuged at 10,000 g for 2 minutes and the entire 15 μL loaded on to 10% gelatine substrate SDS-PAGE gels. Gels were run at 4° C. for 10 minutes at 10 mA followed by a further 25 minutes at 15 mA per gel. They were then incubated for 2×20 minutes in a 2.5% Triton-X 100 solution followed by a three hour incubation in 0.1M Tris/HCl containing 1 mM CaCl2 pH 8.0. Activity was detected as clear areas on the gel the result of protease activity degrading the gelatine within the gel.
10% SDS-PAGE gelatine substrate gels were loaded with freeze dried egg shell washings from 100 lice eggs that had been resuspended in 50 μl of non-reducing sample buffer with samples run at 10 μl per lane. Gels were run at 4° C. for 10 minutes at 10 mA per gel followed by a further 25 minutes at 15 mA per gel. Gels were then cut into strips and each strip incubated for 2×20 minutes in a 2.5% Triton-X 100 solution containing a specific inhibitor. The inhibitors used were the serine protease inhibitor PMSF (5 mM), the metalloprotease inhibitor 1,10-phenanthroline (10 mM), the aspartic protease Pepstatin (5 μM) and the cysteine inhibitor E-64 (10 μM). The gel strips were then incubated in 0.1M Tris/HCl containing 1 mM CaCl2 pH 8 containing the different protease inhibitors for 3 hrs at 37° C., before being stained in Coomassie blue and destained as previously described.

[4] = tested on: lice eggs; assay: Standard lice egg-hatching assay with commercial head lice products; assay type: in vivo; details: across the different stages of lice egg hatching (24-120 hr post laying)
Description: These three products were tested according to manufacturer's recommendations. Groups of eggs (24 hr old) were treated with the different products according to manufacturer's recommendations for the appropriate period of time (5-10 minutes) followed by a rinse for 1-2 minutes in 32° C. water. A positive controls (10 mM 1,10-phenanthroline) and two negative controls (no treatment and 20% Methanol) were also incorporated. Post exposure to the different products, the eggs were rinsed with warm water at 32° C. before being blotted dry on tissue paper and placed at 32° C., 70% RH and left to hatch. A second group of eggs, (48 hr old) were treated as previously described and also left to hatch. This process was repeated at 24 hr intervals on head lice eggs up to 120 hr post laying. This method of assaying inhibitors more closely mirrors the field situation where lice eggs will be at various stages of development on the head and permits the inhibitory effects to be observed on these different stages of the parasite.
These two products were tested according to manufacturer's recommendations. Groups of eggs (24 hr old) were treated with the different products according to manufacturer's recommendations for the appropriate period of time (5-10 minutes) followed by a rinse for 1-2 minutes in 32° C. water. Two negative controls (no treatment and 20% ethanol) were also incorporated. […]

[5] = tested on: head lice egg (Pediculus humanus capitus); assay: Head lice egg hatching time course; assay type: in vivo; details: 10 mM
Description: Tests were carried out to determine if metal chelating agent and metalloprotease inhibitor 1,10-phenanthroline could inhibit head lice egg (Pediculus humanus capitus) hatching as opposed to body lice. Head lice eggs were obtained by placing groups of both 1-2 adult male and 6-8 adult female head lice in separate wells in a 24 well petri dish containing cotton cloth. The petri dish was transferred to a humid incubator at 32° C., 70% RH for 12 hours to permit the female lice to lay their eggs. After 12 hours, all adult lice were removed from the petri dish wells and a series of time-course experiments conducted. A group of eggs (24 hr old) was treated for 10 minutes with 200 μl of a 10 mM solution of 1,10-phenanthroline. A control (i.e., no inhibitor treatment) group of eggs was also included. The eggs were removed from the inhibitor, blotted dry on tissue paper, placed at 32° C., 70% RH and left to hatch. A second group of eggs, (48 hr old) were treated as previously described and also left to hatch. This process was repeated at 24 hr intervals on head lice eggs up to 120 hr post laying. This method of assaying inhibitors more closely mirrors the field situation where lice eggs will be at various stages of development on the head and permits the inhibitory effects to be observed on these different stages of the parasite.

[6] = tested on: Plutella xylostella eggs (Waite strain); assay: Egg hatch of Plutella xylostella after dipping in inhibitor; details: 10 mM
Description: The egg masses were then placed in a humid box at 25 degrees until egg hatch. Control eggs were exposed to absolute methanol as described above. At day 6 post laying the eggs were assessed from the different treatments and the percentage of egg hatch determined relative to the control as shown in Table 9.
Batches of Plutella eggs that were laid on either fine cloth or parafilm were dipped in a specific inhibitor solution for between 2-10 seconds, the excess solution was drained by blotting with dry tissue paper. The egg masses were then placed in a humid box at 25 degrees until egg hatch. Control eggs were exposed to absolute methanol as described above or not treated.
The egg masses were then placed in a humid box at 25 degrees until egg hatch. Control eggs were exposed to absolute ethanol as described above. On day 6 post laying the eggs were assessed from the different treatments and the percentage of egg hatch determined relative to the control.

[7] = tested on: Helicoverpa armigera eggs (Tatura×Toowoomba strains); assay: Egg hatch of Helicoverpa armigera after exposure to inhibitor; details: 10 mM
Description: Several hundred Helicoverpa armigera eggs (Tatura×Toowoomba strains) were collected, that had been laid on fine mesh cloth over a 24 hour period.
Batches of Helicoverpa eggs were exposed to a specific inhibitor solution for between 2-10 seconds the excess solution drained by blotting with dry tissue paper. The egg masses were then placed in a humid box at 25 degrees until egg hatch. Control eggs were exposed to absolute methanol as described above.

[8] = added within 24 hours of hatching, data not shown

## CC(C)C[C@H](NC(=O)[C@@H](O)[C@H](N)Cc1ccccc1)C(=O)O [Bestatin, reference compound]
[1]; 5 mM, eggs treated 5 days post laying
  inhibition of egg hatching in lice (in words): significantly inhibit lice egg hatching
[1]; [8]
  inhibition of egg hatching in lice (in words): variable inhibition of egg hatching
[2]; 5 mM, time course
  inhibition of lice egg hatching (in words): significant inhibition, but only when applied approximately 24 hrs prior to egg hatch; also recorded: partially inhibit lice egg hatching

## CC(C)CC(=O)N[C@H](C(=O)N[C@H](C(=O)N[C@@H](CC(C)C)[C@@H](O)CC(=O)N[C@@H](C)C(=O)N[C@@H](CC(C)C)[C@@H](O)CC(=O)O)C(C)C)C(C)C [pepstatin] (Isovaleryl-VV[Sta]A[Sta]-OH)
[3]; 5 μM inhibitor, data not shown
  protease activity of ESW on gelatine SDS-PAGE after inhibitor treatment: did not show any reduction in protease activity; also recorded: No reduction in protease activity

## c1cnc2c(c1)ccc1cccnc12 [1,10-phenanthroline, reference compound]
[4]
  ovicidal activity (in words): highly effective at inhibiting lice egg hatching
[5]
  inhibition of egg hatching in head lice (in words): significantly inhibit egg hatching in head lice
[6]
  inhibition of egg hatching in Plutella xylostella (in words): significantly inhibit egg hatching
[3]; 10 mM inhibitor
  protease activity of ESW on gelatine SDS-PAGE after inhibitor treatment: significant reduction in protease activity
[1]; 10 mM, eggs treated 5 days post laying
  inhibition of egg hatching in lice (in words): significantly inhibited egg hatching
[1]; [8]
  inhibition of egg hatching in lice (in words): variable inhibition of egg hatching
[7]
  inhibition of egg hatching of Helicoverpa armigera (in words): able to inhibit egg hatching at 10 mM only
[2]; 10 mM, following washing of eggs in water
  inhibition of lice egg hatching (in words): still highly efficacious at inhibiting lice egg hatching
[2]; varying concentrations (10, 5, 2.5 mM) over the time course
  inhibition of lice egg hatching (in words): Significant inhibition; also recorded: significantly inhibit egg hatching in lice at all time points examined

## CC(C)C[C@H](NC(=O)[C@H]1O[C@@H]1C(=O)O)C(=O)NCCCCN=C(N)N [E64]
[3]; 10 μM inhibitor
  protease activity of ESW on gelatine SDS-PAGE after inhibitor treatment: No reduction in protease activity

## O=S(=O)(F)Cc1ccccc1 [PMSF]
[3]; 5 mM inhibitor
  protease activity of ESW on gelatine SDS-PAGE after inhibitor treatment: No reduction in protease activity
